According to paper PMC8150775, “Repositioning Azelnidipine as a Dual Inhibitor Targeting CD47/SIRPα and TIGIT/PVR Pathways for Cancer Immuno-Therapy” (Biomolecules, 2021):

Experiments:
[1] = target: T1, CD47/SIRPα interaction (Homo sapiens, UniProt P78324); experiment: Blocking assay by flow cytometry, preliminary screening at a single concentration, CD47/SIRPα; type: binding; conditions: preliminary test, single concentration of 100 μM
T1 construct: purchased ACRO Biosystem SIA-H5251; host or cells: CHOK1-CD47 cells (lenti-viral transfection)
T1 sequence (P78324 31-370 limits assumed): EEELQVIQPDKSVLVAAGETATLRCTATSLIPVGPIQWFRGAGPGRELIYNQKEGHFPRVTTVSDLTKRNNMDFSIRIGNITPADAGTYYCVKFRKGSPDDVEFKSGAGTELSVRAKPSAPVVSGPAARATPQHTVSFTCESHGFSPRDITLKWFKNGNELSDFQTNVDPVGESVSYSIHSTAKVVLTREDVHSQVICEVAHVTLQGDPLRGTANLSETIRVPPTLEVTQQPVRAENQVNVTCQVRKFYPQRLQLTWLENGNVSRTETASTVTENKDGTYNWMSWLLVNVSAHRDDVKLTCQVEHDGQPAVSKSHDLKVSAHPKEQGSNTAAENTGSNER
Experimental: (§1) The abilities of small molecule inhibitors (SMIs) (purchased from TargetMol, Shanghai, China) to block the binding of SIRPα protein to CHOK1-CD47 cells or PVR protein to CHOK1-TIGIT cells were determined by flow cytometry, as previously reported. The SMIs at indicated concentrations were incubated with Fc-tagged SIRPα or PVR protein for 30 min at 4°C, followed by incubating with the indicated cells for another 30 min. Human SIRPα protein (SIA-H5251, ACRO Biosystem, Beijing, China), mouse SIRPα protein (SIA-M5258, ACRO Biosystem, Beijing, China), human PVR protein (CD5-H82F6, ACRO Biosystem, Beijing, China), and mouse PVR protein (50259-M03H, Sino Biological, Beijing, China) were used. PE-conjugated anti-human IgG antibody was used to detect the Fc protein bind to cells. Cells incubated with the Fc proteins and anti-human IgG antibody without the SMIs serve as the positive control. The mean fluorescent intensity (MFI) of each sample was detected and recorded by a flow cytometry. The blocking efficacy of the SMIs was calculated as the equation: (MFI of the positive control-MFI of the SMI)/MFI of the positive control × 100%.
(§2) The small molecule inhibitor could not only bind to the target; most importantly, it should interfere with the receptor–ligand interactions. Subsequently, the candidate inhibitors were screened by the blocking assays with the established CD47 and TIGIT over-expressing cell lines. The test was initialed with a preliminary screening of the candidates with a single concentration (Figure 2D). Generally, the SMI blocking efficacy to the CD47/SIRPα interaction was much higher than that of the TIGIT/PVR. […] Therefore, the SMI-F11 and SMI-F17 may exert dual blocking effects in the CD47/SIRPα and TIGIT/PVR pathways. Blocking assays with a concentration gradient of the SMI were further performed to validate the preliminary screening. […] The similar blocking assays with the mouse CD47 and TIGIT over-expressing cells were also performed. […] Considering that most pairs of the immune checkpoints interact with the corresponding ligand in parallel forms, the blocking assays with the PD-1/PD-L1 interaction system was also conducted to test the specificity.

[2] = target: T2, TIGIT/PVR interaction (Homo sapiens, UniProt P15151); experiment: Blocking assay by flow cytometry, preliminary screening at a single concentration, TIGIT/PVR; type: binding; conditions: preliminary test, single concentration of 100 μM
T2 construct: purchased ACRO Biosystem CD5-H82F6; host or cells: CHOK1-TIGIT cells (lenti-viral transfection)
T2 sequence (P15151 21-343 limits assumed): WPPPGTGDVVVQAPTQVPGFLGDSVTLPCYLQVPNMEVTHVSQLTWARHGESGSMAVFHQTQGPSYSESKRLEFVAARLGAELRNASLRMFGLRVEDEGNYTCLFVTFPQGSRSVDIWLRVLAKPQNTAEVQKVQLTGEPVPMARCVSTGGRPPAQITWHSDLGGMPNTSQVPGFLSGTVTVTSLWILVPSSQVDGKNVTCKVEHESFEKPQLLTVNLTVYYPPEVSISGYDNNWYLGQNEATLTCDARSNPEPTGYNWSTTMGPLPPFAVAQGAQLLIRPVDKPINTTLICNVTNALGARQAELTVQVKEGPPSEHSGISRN
Experimental: as §1, §2

[3] = target: T3, human TIGIT/PVR (Homo sapiens, UniProt P15151); experiment: Blocking assay, human PVR protein binding to CHOK1-hTIGIT cells; conditions: concentration gradient
T3 construct: purchased ACRO Biosystem CD5-H82F6; host or cells: soluble protein purchased; TIGIT on CHOK1-hTIGIT cells (lenti-viral transfection)
Experimental: as §1

[4] = target: T4, human CD47/SIRPα (Homo sapiens, UniProt P78324); experiment: Blocking assay, human SIRPα protein binding to CHOK1-hCD47 cells; conditions: concentration gradient
T4 construct: purchased ACRO Biosystem SIA-H5251; host or cells: soluble protein purchased; CD47 on CHOK1-hCD47 cells (lenti-viral transfection)
T4 sequence (P78324 31-370 limits assumed): as the sequence (P78324 31-370 limits assumed) above
Experimental: as §1

blocking efficacy, CD47/SIRPα interaction [1] | Structure (SMILES) | activity in interfering with the TIGIT/PVR interaction [2] | concentration-dependent blocking effect, TIGIT/PVR [3] | concentration-dependent blocking effect, CD47/SIRPα [4]
more than 50% | O=C1[C@H](CC[C@H](O)c2ccc(F)cc2)[C@@H](c2ccc(O)cc2)N1c1ccc(F)cc1 [SMI-F17, Ezetimibe] | better activities | could not exert blocking effects in a concentration-dependent manner | could not exert blocking effects in a concentration-dependent manner
more than 50% | Nc1cccc2c1CN(C1CCC(=O)NC1=O)C2=O (centres unmarked) [SMI-F19, Lenalidomide] |  |  | 

Second part, the compound before the results:

Structure (SMILES) | blocking efficacy, CD47/SIRPα interaction [1] | activity in interfering with the TIGIT/PVR interaction [2] | concentration-dependent blocking effect, TIGIT/PVR [3] | concentration-dependent blocking effect, CD47/SIRPα [4]
Cc1cc(O)c(C(=O)N[C@@H](C(=O)N[C@@H]2C(=O)N3C(C(=O)O)=C(CSc4nnnn4C)CS[C@H]23)c2ccc(O)cc2)cn1 [SMI-F12, Cefpiramide acid] | more than 50% |  |  | 
CCCSc1ccc2nc(NC(=O)OC)[nH]c2c1 [SMI-F16, Albendazole] |  | better activities |  | 
COc1cccc(N(C)C(=S)Oc2ccc3c(c2)CCCC3)n1 [SMI-F20, Liranaftate] |  | better activities |  | 
